Paper PMC6615261, “Repurposing Azithromycin and Rifampicin Against Gram-Negative Pathogens by Combination With Peptidomimetics” (Frontiers in Cellular and Infection Microbiology, 2019)

Key:
E. coli ST131 [1] = conditions: checkerboard
Procedure: (§1) The potential synergistic effects in peptidomimetic-antibiotic combinations were assessed by using a two-dimensional checkerboard assay (Garcia, [2010]). Briefly, twofold dilutions of peptide and antibiotic were prepared in MBH II media along the X- and Y-axis, respectively, in 96-well plates. The inoculum was added to the plates, and subsequently these were incubated for 18–20 h. All steps for inoculum preparation and broth microdilution were in accordance with the CLSI guidelines (Clinical and Laboratory Standards Institute, [2013]). The fractional inhibitory concentration index (FICI) was calculated as [MICA(A+B)/MICA(alone)] + [MICB(A+B)/MICB(alone)], where MICA(A+B) represents the MIC of antibiotic (A) in combination with peptidomimetic (B), while MICB(A+B) represents the MIC of peptidomimetic (B) in combination with antibiotic (A). MICA(alone) and MICB(alone) represent the MIC of each compound individually. FICI values of ≤0.5 were interpreted as synergy.

K. pneumoniae ST258 [2] = conditions: checkerboard
Procedure: as §1

P. aeruginosa ATCC 27853 = conditions: P. aeruginosa ATCC 27853; checkerboard
Procedure: as §1

K. pneumoniae ST258 [3] = test: Potentiation of additional antibiotics (COMPAN1F plates), MIC; type: cell-based, Klebsiella pneumoniae
Procedure: (§2) Minimal inhibitory concentrations (MICs) of peptidomimetics, antibiotics and their combinations were determined by broth microdilution according to the Clinical Laboratory Standards Institute performance standards (Clinical and Laboratory Standards Institute, [2013]). […] Since rifampicin and azithromycin mainly are used to treat infections with Gram-positive pathogens only CLSI clinical breakpoints were available for such bacteria. […] Potentiation of additional antibiotics by peptidomimetics was determined by using commercial 96-well plates containing varied concentrations of standard antibiotics (COMPAN1F; Trek Diagnostic Systems Inc.). The peptidomimetics were added immediately prior to inoculation with pathogen, and then MICs were determined as above. The MICs of peptidomimetic/antibiotic combinations were determined according to the method above, and the concentration ratios were selected based upon checkerboard results with 2:1 and 1:4 ratio of peptidomimetic with rifampicin or azithromycin, respectively. Minimal bactericidal concentrations (MBCs) were determined by using growth-curve assay plates. MIC plates were prepared as above, and then the plates were incubated at 37°C with continuous shaking. Growth was recorded at 10 min intervals as optical density (OD) at 600 nm during 24 h. At 24 h, for wells without growth, a sample was diluted 10-fold in sterile saline (0.9% sodium chloride) and plated onto MHA, following CLSI guidelines (Clinical and Laboratory Standards Institute, [1999]).

E. coli ST131 [4] = test: as above; type: cell-based, Escherichia coli
Procedure: as §2

[5] = test system: E. coli clinical isolates and reference strains; test: MIC of fixed-ratio peptidomimetic 1-antibiotic combinations in clinical isolates and reference strains; type: cell-based, Escherichia coli; conditions: in combination with 0.5–1 μM peptidomimetic 1
Source text: (§3) Bacterial strains used in this study comprise MDR clinical isolates of E. coli ST131 (Cerquetti et al., [2010]) and K. pneumoniae ST258 (Jana et al., [2017]), and American type culture collection (ATCC) strains: ATCC 25922 (E. coli), ATCC 13883 (K. pneumoniae), and ATCC 27853 (P. aeruginosa). Additional clinical isolates of E. coli, K. pneumoniae, and P. aeruginosa resistant to β-lactams (including carbapenems and cephalosporins) were provided by Laurent Poirel, Université de Fribourg, Switzerland. The following growth media was routinely used for bacterial culturing: Luria-Burtani (LB), cation-adjusted Mueller-Hinton agar (MHA) and broth (MHB II). All assays were performed in cation-adjusted MHA or MHB II. Antibiotics were purchased from Sigma-Aldrich and the peptidomimetic collection (Table S1) was curated and provided by Henrik Franzyk. […]
(§4) Minimal inhibitory concentrations (MICs) of peptidomimetics, antibiotics and their combinations were determined by broth microdilution according to the Clinical Laboratory Standards Institute performance standards (Clinical and Laboratory Standards Institute, [2013]). […] Potentiation of additional antibiotics by peptidomimetics was determined by using commercial 96-well plates containing varied concentrations of standard antibiotics (COMPAN1F; Trek Diagnostic Systems Inc.). The peptidomimetics were added immediately prior to inoculation with pathogen, and then MICs were determined as above. The MICs of peptidomimetic/antibiotic combinations were determined according to the method above, and the concentration ratios were selected based upon checkerboard results with 2:1 and 1:4 ratio of peptidomimetic with rifampicin or azithromycin, respectively. Minimal bactericidal concentrations (MBCs) were determined by using growth-curve assay plates. […] Growth was recorded at 10 min intervals as optical density (OD) at 600 nm during 24 h. […]

E. coli ST131 [6] = conditions: E. coli ST131; growth-curve assay
Procedure: as §2

K. pneumoniae ST258 [7] = conditions: K. pneumoniae ST258; growth-curve assay
Procedure: as §2

P. aeruginosa ATTC 27853 = conditions: P. aeruginosa ATTC 27853; growth-curve assay
Procedure: as §2

[8] = test system: P. aeruginosa clinical isolates and reference strains; test: MIC of fixed-ratio peptidomimetic 1-antibiotic combinations in clinical isolates and reference strains; type: cell-based, Pseudomonas aeruginosa; conditions: with 1–8 μM of 1
Source text: as §3, §4

Structure (SMILES): CO[C@H]1/C=C/O[C@@]2(C)Oc3c(C)c(O)c4c(O)c(c(/C=N/N5CCN(C)CC5)c(O)c4c3C2=O)NC(=O)/C(C)=C\C=C\[C@H](C)[C@H](O)[C@@H](C)[C@@H](O)[C@@H](C)[C@H](OC(C)=O)[C@@H]1C [Rifampicin, rifampicin]
- Antibiotic MIC alone (E. coli ST131 [1]): 4 mg/L
- Antibiotic MIC alone (K. pneumoniae ST258 [2]): 16 mg/L
- Antibiotic MIC alone (P. aeruginosa ATCC 27853): 32 mg/L
- MIC of antibiotic in presence of peptidomimetic 1 (K. pneumoniae ST258 [3]; + 1 μM peptidomimetic 1): ≤1 mg/L
- MIC of antibiotic in presence of peptidomimetic 1 (K. pneumoniae ST258 [3]; + 1 μM peptidomimetic 1, listed as rifampicin): below 1 μg/mL
- MIC of antibiotic in presence of peptidomimetic 15 (K. pneumoniae ST258 [3]; + 1 μM peptidomimetic 15): ≤1 mg/L
- MIC of antibiotic in presence of peptidomimetic 15 (K. pneumoniae ST258 [3]; + 1 μM peptidomimetic 15, listed as rifampicin): below 1 μg/mL
- MIC of antibiotic in presence of peptidomimetic 26 (K. pneumoniae ST258 [3]; + 1 μM peptidomimetic 26): ≤1 mg/L
- MIC of antibiotic in presence of peptidomimetic 26 (K. pneumoniae ST258 [3]; + 1 μM peptidomimetic 26, listed as rifampicin): below 1 μg/mL
- MIC (K. pneumoniae ST258 [3]; Klebsiella pneumoniae, no peptidomimetic, read-out: MIC of antibiotic alone): > 2 mg/L
- MIC of antibiotic alone (K. pneumoniae ST258 [3]; no peptidomimetic): >2 mg/L
- MIC of antibiotic in presence of peptidomimetic 26 (E. coli ST131 [4]; + 0.25 μM peptidomimetic 26): ≤1 mg/L
- MIC of antibiotic in presence of peptidomimetic 26 (E. coli ST131 [4]; + 0.25 μM peptidomimetic 26, listed as rifampicin): below 1 μg/mL
- MIC of antibiotic in presence of peptidomimetic 1 (E. coli ST131 [4]; + 0.5 μM peptidomimetic 1): ≤1 mg/L
- MIC of antibiotic in presence of peptidomimetic 1 (E. coli ST131 [4]; + 0.5 μM peptidomimetic 1, listed as rifampicin): below 1 μg/mL
- MIC of antibiotic in presence of peptidomimetic 15 (E. coli ST131 [4]; + 0.5 μM peptidomimetic 15): ≤1 mg/L
- MIC of antibiotic in presence of peptidomimetic 15 (E. coli ST131 [4]; + 0.5 μM peptidomimetic 15, listed as rifampicin): below 1 μg/mL
- MIC (E. coli ST131 [4]; Escherichia coli, no peptidomimetic, read-out: MIC of antibiotic alone): > 2 mg/L
- MIC of antibiotic alone (E. coli ST131 [4]; no peptidomimetic): >2 mg/L
- Antibiotic concentration to which most E. coli isolates proved susceptible in combination [5]: 0.25 to 0.5 µg/mL
- MBC (antibiotic alone) (E. coli ST131 [6]): >4 mg/L
- MIC (antibiotic alone) (E. coli ST131 [6]): >4 mg/L
- MBC (antibiotic alone) (K. pneumoniae ST258 [7]): >16 mg/L
- MIC (antibiotic alone) (K. pneumoniae ST258 [7]): >16 mg/L
- MBC (antibiotic alone) (P. aeruginosa ATTC 27853): >64 mg/L
- MIC (antibiotic alone) (P. aeruginosa ATTC 27853): >64 mg/L
- MIC of antibiotic in combination, P. aeruginosa isolates (typical) [8]: 0.5 mg/L
